From PMC11468294, “Peptide Amphiphiles as Biodegradable Adjuvants for Efficient Retroviral Gene Delivery” (Advanced Healthcare Materials, 2023)
“Also recorded” adds a separate entry of the source. Where a SMILES comes first, the peptide text is derived from it. The star is where a group is joined. Palmitoyl = CCCCCCCCCCCCCCCC(=O)*

Columns and labels:
[1] = Control experiments degradation analysis without cells; assay type: physicochemical; conditions: Proteostat-stained fibrils without cells, 37°C, 30 min vs 3 d
Experimental: Control experiments degradation analysis: To check changes of fibril aggregation without cells fluorescence microscopy measurements (Leica DMi8 microscope, 10x air objective, Leica MC170 HD camera, λem = 527/30 nm, λex = 480/40 nm) were performed analogously to the cell‐experiments with PA1‐3. Briefly, 4 µL of the preformed peptide fibrils (1 mg mL^−1) were diluted with 4 µL Proteostat (Enzo Life Science, 1 µL stock in 999 µL PBS) and incubated for 10 min and further diluted with medium to receive a final peptide concentration of 20 µg mL^−1. The fibril aggregates were monitored after 30 min incubation at 37°C and for the evaluation of aggregate degradation, the samples were further incubated at 37°C for 3 d and analyzed without any additional washing step. […] The evaluation of aggregate size and number was conducted by analyzing Proteostat stained aggregates via the 3D objects counter function of ImageJ 1.53f51 for at least three individual measurements (area 1331.2 µm × 1331.2 µm) of three individually repeated experiments. […]
Aggregate analysis was conducted via fluorescence microscopy by cumulating triplicate measurements. […]

[2] = Microscopic aggregation (fluorescence / confocal microscopy, derived count rate); assay type: physicochemical; conditions: for formation of µm-sized aggregates (in words): fibrils preformed at 1 mg mL-1 in PBS, ThT or Proteostat stain, widefield or confocal microscopy, derived count rate > 1000 kcps as criterion; for assembly in water (fluorescence microscopy): incubated 1 d in pure MilliQ water, ThT stain

Row | Molecule | change of aggregate size and number without cells [1] | formation of µm-sized aggregates (in words) [2] | assembly in water (fluorescence microscopy) [2]
1 | C16-VVVAAAKKK-NH2 [PA1] | not significantly changing in size and number | micrometer‐sized clusters of fibrils were formed; also recorded: less aggregation; also recorded: form µm‐sized aggregates | distinct fibrils
2 | CCCCCCCCCCCCCCCC(=O)N[C@@H](Cc1ccccc1)C(=O)N[C@@H](CCC(N)=O)C(=O)N[C@@H](Cc1ccccc1)C(=O)N[C@@H](CCCCN)C(=O)N[C@@H](Cc1ccccc1)C(=O)N[C@@H](CCCCN)C(=O)N[C@@H](CS)C(N)=O [PA2] (Palmitoyl-FQFKFKC-NH2) | not significantly changing in size and number | micrometer‐sized clusters of fibrils were formed; also recorded: high aggregation; also recorded: form µm‐sized aggregates | distinct fibrils
